Here are results for 14 molecules from patent publication US20260137714A1, “METHODS AND COMPOSITIONS FOR TREATMENT OF OPHTHALMIC DISEASE” (Design Therapeutics, Inc., priority 2022, published 2026).

A short description of series [1]: Compound solubility in water using in situ salt formation with aqueous HCl. In kind it is physicochemical. Particulars: for Result: appearance at the final concentration; for solubility: aqueous buffer, thermodynamic from solid, water with aqueous HCl, in situ salt formation, started at 10 mg/ml, minimum tested 1 mg/ml, read-out: Final Concentration; for pH: pH of the solution at the end of the experiment, before any aq. NaOH; for pH after aq. NaOH: pH of the solution after adjustment with aq. NaOH. On the procedure: To determine solubility of candidate compounds, solubility of the compounds was determined at a concentration of 10 mg/ml using in situ salt formation with aqueous HCl. First, 0.5 ml of sterile water was added to 10 mg of dry compound, vortexed, and briefly centrifuged. Next, 0.5 equivalents of 0.025 M HCl were added to the mixture followed by a volume of water that totaled 1 ml. The mixture was stirred continuously for 0.5 to 24 h. […] If the solution was not clear, additional water and/or HCl was added, along with continuous stirring and vortexing until it was determined that the compound had completely dissolved or was refractory to dissolution. The minimum concentration tested was 1 mg/ml. pH values were assessed at the end of the experiment.

In series [2] the test system is Immortalized Fuchs endothelial corneal dystrophy cells (F35T). Put plainly: In vitro foci assay (nuclear foci by FISH with (CAG)10-Cy3 oligonucleotide). The format is cell-based. The conditions noted are these: 48 h treatment, 3000 to 1 nM. On the procedure: Immortalized Fuchs endothelial corneal dystrophy cells (F35T) were seeded in black-sided clear-bottomed 96 well plates at 5000 cells per well 16 hours prior to compound treatment. Compounds were dissolved in DMSO to 1 mM and diluted to a final concentration of 3000 to 1 nM in F35T cell culture media. Diluted compounds were added to the F35T cells and incubated for 48 h.
Following treatment, cells were fixed in 4% paraformaldehyde for 20 min, washed twice with PBS, and permeabilized with 70% ethanol at −20 deg C. for 16 h. Following permeabilization, cells were washed twice with PBS then hydrated with 30% formamide plus 2×SSC buffer for 10 min. Nuclear foci were labeled using fluorescent in situ hybridization with a (CAG)10-Cy3 oligonucleotide. Images were collected and automated image analysis was performed on a BioTEK Cytation 5.

Series [3] is described as follows: Ex vivo bovine eye penetration of compounds formulated in water. The format is in vitro ADME. Particulars: for Cornea, R1 / Descemet Membrane/endothelial cells, R1: bovine eye, 30 min at room temperature, LC-MS, replicate R1. The procedure:
Freshly enucleated bovine eyes (Nebraska Scientific) were treated with compound as described previously (Luschmann et al., “Developing an in situ nanosuspension: a novel approach towards the efficient administration of poorly soluble drugs at the anterior eye”, European Journal of Pharmaceutical Sciences (2013)). Individual eyes were rinsed with 10 mL of sterile 0.9% saline then placed in the bottom of a 600 mL glass beaker (Pyrex). A borosilicate glass powder funnel with a 26 mm diameter stem (Eisco Labs) was gently rested on top of the eye with the cornea centered in the cylindrical opening, creating a sealed dosing chamber in which solutions were applied. Eyes were equilibrated in sterile 0.9% saline at room temperature for 20 min then decanted. 500 μL of 0.1 to 0.3% GeneTAC compound was applied to the cornea followed by 167 μL of sterile water to mimic the instillation a 30 μL eye drop into 10 μL of tear fluid. Compound was incubated for 30 min at room temperature after which the funnel was removed. Next, eyes were washed twice with 10 ml of 5.2% aqueous mannitol solution to remove residual compound. Aqueous humor was recovered using a 28-gauge needle and snap frozen in liquid nitrogen. The cornea was then surgically excised, and the Descemet membrane and corneal endothelium (DM/CE) were removed with fine forceps under a dissecting microscope and snap frozen in liquid nitrogen. Compound abundance was quantified in aqueous humor, anterior cornea, and DM/CE using liquid chromatography-mass spectrometry.

SMILES strings stand for the structures.

A word on the IC50: it is the concentration that gives 50% inhibition. Consider `COCCOCCOCCOCCN(CCCNC(=O)c1nc(NC(=O)c2cc(NC(=O)CCNC(=O)c3nc(NC(=O)CCCNC(=O)c4cc(NC(=O)c5nc(NC(=O)CCNC(=O)c6cc(NC(=O)c7nccn7C)cn6C)cn5C)cn4C)cn3C)cn2C)cn1C)CCOCCOCCOCCOC` [Compound 201], for which, in series [1], the Result result is listed as “Clear solution”, the solubility was at least 10000 µg/mL and the pH is 6.04. In series [2], this molecule returned an IC50 of 167 nM. The “Concentrations reached in corneal epithelium and stroma and in Descemet membrane and endothelium, relative to IC50” value in series [3] (FIG. 1, ex vivo bovine eye distribution) is listed as “above the IC50 for preventing foci formation as well as above the IC50 for preventing abnormal splicing events”. In series [3], the “Cornea, R1” value is recorded as 798 nM and the “Descemet Membrane/endothelial cells, R1” value was 46 nM.

Consider `CN1CC2(CCN(C(=O)CCNC(=O)c3nc(NC(=O)c4cc(NC(=O)CCNC(=O)c5nc(NC(=O)CCCNC(=O)c6cc(NC(=O)c7nc(NC(=O)CCNC(=O)c8cc(NC(=O)c9nccn9C)cn8C)cn7C)cn6C)cn5C)cn4C)cn3C)CC2)C1` [Compound 202], for which, in series [1], the Result entry is given as “Clear solution”, the solubility is at least 4030 µg/mL, the “pH after aq. NaOH” value is listed as 6.24 and the pH is given as 3.10. This molecule gave a concentration for half-maximal inhibition (IC50) in series [2] of 213 nM.

On to `CN1CC(C2CCN(C(=O)CCNC(=O)c3nc(NC(=O)c4cc(NC(=O)CCNC(=O)c5nc(NC(=O)CCCNC(=O)c6cc(NC(=O)c7nc(NC(=O)CCNC(=O)c8cc(NC(=O)c9nccn9C)cn8C)cn7C)cn6C)cn5C)cn4C)cn3C)CC2)C1` [Compound 203], for which, in series [1], the Result entry is “Clear solution”, the solubility was at least 3180 µg/mL and the pH is given as 8.04. Also, in series [2], the IC50 was 384 nM.

Take `Cn1cc(NC(=O)c2nc(NC(=O)CCNC(=O)c3cc(NC(=O)c4nccn4C)cn3C)cn2C)cc1C(=O)NCCCC(=O)Nc1cn(C)c(C(=O)NCCC(=O)Nc2cc(C(=O)Nc3cn(C)c(C(=O)NCCC(=O)N4CCC(C5CNC5)CC4)n3)n(C)c2)n1` [Compound 204]: in series [1], the Result entry is recorded as “Clear solution”, the solubility was at least 3780 µg/mL, the “pH after aq. NaOH” value turned out to be 6.73 and the pH was found to be 2.32. In series [2], this molecule yielded an IC50 of 518 nM.

For the molecule `CN(C)CCOCCNC(=O)c1nc(NC(=O)c2cc(NC(=O)CCNC(=O)c3nc(NC(=O)CCCNC(=O)c4cc(NC(=O)c5nc(NC(=O)CCNC(=O)c6cc(NC(=O)c7nccn7C)cn6C)cn5C)cn4C)cn3C)cn2C)cn1C` [Compound 205], in series [1], the Result entry was “Clear solution”, the solubility was at least 1000 µg/mL and the pH was determined as 7.62. In addition, the IC50 in series [2] turned out to be 65 nM.

Consider `Cn1cc(NC(=O)c2nc(NC(=O)CCNC(=O)c3cc(NC(=O)c4nccn4C)cn3C)cn2C)cc1C(=O)NCCCC(=O)Nc1cn(C)c(C(=O)NCCC(=O)Nc2cc(C(=O)Nc3cn(C)c(C(=O)NCCCN4CCOCC4)n3)n(C)c2)n1` [Compound 206], for which, in series [1], the Result result is given as “Clear solution”, the solubility was at least 1000 µg/mL and the pH worked out at 4.96. Besides, in series [2], 172 nM corresponded to half-maximal inhibition (IC50).

Consider `Cn1cc(NC(=O)c2nc(NC(=O)CCNC(=O)c3cc(NC(=O)c4nccn4C)cn3C)cn2C)cc1C(=O)NCCCC(=O)Nc1cn(C)c(C(=O)NCCC(=O)Nc2cc(C(=O)Nc3cn(C)c(C(=O)NCCC(=O)N4CCC(C#CC#CC5CCNCC5)CC4)n3)n(C)c2)n1` [Compound 207], for which, in series [1], the Result entry is “Clear solution” and the solubility is at least 10000 µg/mL. Half-maximal inhibition in series [2] (IC50) was put at 33 nM.

Turning to `Cn1cc(NC(=O)c2nc(NC(=O)CCNC(=O)c3cc(NC(=O)c4nccn4C)cn3C)cn2C)cc1C(=O)NCCCC(=O)Nc1cn(C)c(C(=O)NCCC(=O)Nc2cc(C(=O)Nc3cn(C)c(C(=O)NCCC(=O)N4CCC5(CC4)CNC5)n3)n(C)c2)n1` [Compound 208], in series [1], the Result entry is given as “Clear solution”, the solubility was at least 3530 µg/mL, the “pH after aq. NaOH” value was 6.07 and the pH was determined as 2.75. Moreover, the concentration for half-maximal inhibition (IC50) in series [2] was determined as 186 nM.

Turning to `CN1CCN(C(=O)CCNC(=O)c2nc(NC(=O)c3cc(NC(=O)CCNC(=O)c4nc(NC(=O)[C@H](N)CCNC(=O)c5cc(NC(=O)c6nc(NC(=O)CCNC(=O)c7cc(NC(=O)c8nccn8C)cn7C)cn6C)cn5C)cn4C)cn3C)cn2C)CC1` [Compound 209], in series [1], the Result result is on record as “Clear solution”, the solubility was at least 10000 µg/mL and the pH was determined as 2.21. Further, in series [2], 1650 nM corresponded to half-maximal inhibition (IC50).

On to `Cn1cc(NC(=O)c2nccn2C)cc1C(=O)NCCC(=O)Nc1cn(C)c(C(=O)Nc2cc(C(=O)NCC[C@@H](N)C(=O)Nc3cn(C)c(C(=O)NCCC(=O)Nc4cc(C(=O)Nc5cn(C)c(C(=O)NCCC(=O)N6CCC(C#CC#CC7CCNCC7)CC6)n5)n(C)c4)n3)n(C)c2)n1` [Compound 210], for which, in series [1], the Result result is recorded as “Clear solution”, the solubility is at least 10000 µg/mL and the pH worked out at 2.14. The same molecule showed an IC50 in series [2] of 715 nM.

On to `CN(C)CCCCNC(=O)c1nc(NC(=O)c2cc(NC(=O)CCNC(=O)c3nc(NC(=O)[C@H](N)CCNC(=O)c4cc(NC(=O)c5nc(NC(=O)CCNC(=O)c6cc(NC(=O)c7nccn7C)cn6C)cn5C)cn4C)cn3C)cn2C)cn1C` [Compound 211], for which, in series [1], the Result result is listed as “Clear solution”, the solubility is at least 10000 µg/mL and the pH is recorded as 2.14. This molecule displayed an IC50 in series [2] of 1640 nM.

As for `COCCOCCOCCOCCOCCOCCOc1ccc(C#CCNCCCNC(=O)c2nc(NC(=O)c3cc(NC(=O)CCNC(=O)c4nc(NC(=O)CCCNC(=O)c5cc(NC(=O)c6nc(NC(=O)CCNC(=O)c7cc(NC(=O)c8nccn8C)cn7C)cn6C)cn5C)cn4C)cn3C)cn2C)cc1` [Compound 212], in series [1], the Result entry is listed as “Clear solution”, the solubility was at least 10000 µg/mL and the pH was determined as 1.97. Moreover, the IC50 in series [2] is 378 nM.

With `Cn1cc(NC(=O)c2nc(NC(=O)CCNC(=O)c3cc(NC(=O)c4nccn4C)cn3C)cn2C)cc1C(=O)NCCCC(=O)Nc1cn(C)c(C(=O)NCCC(=O)Nc2cc(C(=O)Nc3cn(C)c(C(=O)NCCC(=O)N4CCC(N5CCNCC5)CC4)n3)n(C)c2)n1` [Compound 213], in series [1], the Result entry is recorded as “Clear solution”, the solubility was at least 3210 µg/mL and the pH was determined as 6.64. In series [2], this molecule had an IC50 of 892 nM. Besides, in series [3], the “Cornea, R1” value is given as 50 nM and the “Descemet Membrane/endothelial cells, R1” value is on record as “BQL”.

Turning to `CCCCn1cc(NC(=O)c2nc(NC(=O)CCNC(=O)c3cc(NC(=O)c4nccn4C)cn3C)cn2C)cc1C(=O)NCC[C@@H](N)C(=O)Nc1cn(C)c(C(=O)NCCC(=O)Nc2cc(C(=O)Nc3cn(C)c(C(=O)NCCC(=O)N4CCN(C)CC4)n3)n(C)c2)n1` [Compound 214], in series [1], the Result entry was “Clear solution”, the solubility was at least 10000 µg/mL and the pH came to 2.16. In addition, the IC50 in series [2] worked out at 237 nM.
